Columns and labels:
Test in all cases: relative viability (nuclei count vs DMSO), 5 days (fraction); higher = more cells survive
Tipifarnib + Bortezomib = compound: Cn1cncc1[C@@](N)(c1ccc(Cl)cc1)c1ccc2c(c1)c(-c1cccc(Cl)c1)cc(=O)n2C [Tipifarnib] + CC(C)C[C@H](NC(=O)[C@H](Cc1ccccc1)NC(=O)c1cnccn1)B(O)O [Bortezomib] (partner 0.002 µM)
How it was run: (§1)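 Relative viability is defined as nuclei in treated wells over nuclei in vehicle wells. Duplicate plates were run and medians reported. Lung cancer cell lines in 1536-well plates were dosed by pin tool one day after seeding, with one drug or with a fixed anchor-drug dose plus five library-drug doses (not always all listed) in √10 steps, and nuclei were counted after 5 days.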

Tipifarnib + Dasatinib = compound: Cn1cncc1[C@@](N)(c1ccc(Cl)cc1)c1ccc2c(c1)c(-c1cccc(Cl)c1)cc(=O)n2C [Tipifarnib] + Cc1nc(Nc2ncc(C(=O)Nc3c(C)cccc3Cl)s2)cc(N2CCN(CCO)CC2)n1 [Dasatinib] (partner 0.075 µM)
How it was run: as §1

Tipifarnib + Luminespib = compound: Cn1cncc1[C@@](N)(c1ccc(Cl)cc1)c1ccc2c(c1)c(-c1cccc(Cl)c1)cc(=O)n2C [Tipifarnib] + CCNC(=O)c1noc(-c2cc(C(C)C)c(O)cc2O)c1-c1ccc(CN2CCOCC2)cc1 [Luminespib] (partner 0.01 µM)
How it was run: as §1

Tipifarnib + Palbociclib = compound: Cn1cncc1[C@@](N)(c1ccc(Cl)cc1)c1ccc2c(c1)c(-c1cccc(Cl)c1)cc(=O)n2C [Tipifarnib] + CC(=O)c1c(C)c2cnc(Nc3ccc(N4CCNCC4)cn3)nc2n(C2CCCC2)c1=O [Palbociclib] (partner 0.5 µM)
How it was run: as §1

Cell Line | relative viability (Tipifarnib + Bortezomib; first compound 0.01 µM) | relative viability (Tipifarnib + Bortezomib; first compound 0.03162 µM) | relative viability (Tipifarnib + Bortezomib; first compound 0.1 µM) | relative viability (Tipifarnib + Bortezomib; first compound 0.3162 µM) | relative viability (Tipifarnib + Bortezomib; first compound 1 µM) | relative viability (Tipifarnib + Dasatinib; first compound 0.01 µM) | relative viability (Tipifarnib + Dasatinib; first compound 0.03162 µM) | relative viability (Tipifarnib + Dasatinib; first compound 0.1 µM) | relative viability (Tipifarnib + Dasatinib; first compound 0.3162 µM) | relative viability (Tipifarnib + Dasatinib; first compound 1 µM) | relative viability (Tipifarnib + Luminespib; first compound 0.01 µM) | relative viability (Tipifarnib + Luminespib; first compound 0.03162 µM) | relative viability (Tipifarnib + Luminespib; first compound 0.1 µM) | relative viability (Tipifarnib + Luminespib; first compound 0.3162 µM) | relative viability (Tipifarnib + Luminespib; first compound 1 µM) | relative viability (Tipifarnib + Palbociclib; first compound 0.01 µM) | relative viability (Tipifarnib + Palbociclib; first compound 0.03162 µM) | relative viability (Tipifarnib + Palbociclib; first compound 0.1 µM) | relative viability (Tipifarnib + Palbociclib; first compound 0.3162 µM) | relative viability (Tipifarnib + Palbociclib; first compound 1 µM)
HARA | 1.16 | 0.938 | 1.26 | 1.12 | 0.55 | 0.255 | 0.366 | 0.296 | 0.299 | 0.168 | 0.694 | 0.682 | 0.526 | 0.522 | 0.221 | 0.32 | 0.32 | 0.238 | 0.217 | 0.265
NCI-H2126 | 1.05 | 1.07 | 1.13 | 1.05 | 0.669 | 0.652 | 0.673 | 0.648 | 0.578 | 0.391 | 0.982 | 0.947 | 0.7 | 0.876 | 0.723 | 0.353 | 0.332 | 0.345 | 0.35 | 0.354
LXF-289 | 0.978 | 0.889 | 0.948 | 0.874 | 0.706 | 0.218 | 0.237 | 0.249 | 0.217 | 0.0926 | 0.651 | 0.68 | 0.701 | 0.554 | 0.444 | 0.615 | 0.586 | 0.591 | 0.549 | 0.565
NCI-H460 | 0.957 | 0.605 | 0.369 | 0.248 | 0.036 | 0.512 | 0.514 | 0.307 | 0.146 | 0.0594 | 0.0293 | 0.0319 | 0.0244 | 0.0236 | 0.0186 | 0.178 | 0.187 | 0.096 | 0.0611 | 0.0359
NCI-H2009 | 1.11 | 0.775 | 0.678 | 0.642 | 0.373 | 0.31 | 0.232 | 0.217 | 0.211 | 0.21 | 0.955 | 0.827 | 0.786 | 0.528 | 0.599 | 0.204 | 0.206 | 0.193 | 0.298 | 0.152

Source: the supplement of paper PMC10307832
